Measurements as given in patent EP0959065B1, “Pyrethroid compound and composition for controlling pest containing the same” (priority 1998, dated 1999).

How the values were obtained:
[1] = test system: houseflies (Musca domestica); experiment: Mosquito coil fumigation test in glass chamber (knock-down and lethal activity); assay type: in vivo; parameters: key to Knocking-down activity: Excellent: All the insects were knocked down or dead (the total in the two replications); Good: 1 to 2 insects were not knocked down or dead (ditto); Mediocre: 3 to 4 insects were not knocked down or dead (ditto); Bad: 5 or more insects were not knocked down or dead (ditto); details: two replications; for Knocking-down activity: 0.3 g coil burnt 30 seconds in 0.34 m^3 chamber, knocked-down counted at ten minutes, 10 adult houseflies; for Lethal activity: insects recovered at 25 minutes, dead and alive counted in 24 hours
Text: A base material for mosquito coil (obtained by stirring a 4:3:3 mixture of Tabu powder, Pyrethrum marc and wood powder, adding water thereto, thoroughly kneading the resulting mixture, and molding and drying the kneaded mixture) was uniformly impregnated with a solution of the present compound in acetone so that the material contains a predetermined amount of the compound. The resultant base material was air-dried to obtain a mosquito coil.
Ten adult houseflies (Musca domestica) (male/ female = 5/5) were released in a glass chamber (70cm cube, capacity: 0.34 m^3). 0.3 Gram of a mosquito coil containing the present compound prepared according to the procedure described above was set on a holder in the center of the bottom of the chamber, ignited at one end thereof, and taken out of the chamber after 30 seconds of combustion. The knocked-down houseflies were counted in ten minutes after the setting of the coil. In 25 minutes after the setting of the coil, the test insects were recovered into a cup for recovery and given water and diet. The dead and alive were counted in 24 hours. Two replications of the test were carried out. The same test procedure was repeated for 4-methyl-2,3,5,6-tetrafluorobenzyl (1R)-cis-3-(2,2-dichlorovinyl)-2,2-dimethylcyclopropanecarboxylate (hereinafter referred to as reference compound A) and for a mixture of 50% by weight of 4-methyl-2,3,5,6-tetrafluorobenzyl (1RS)-cis-3-(2,2-dichlorovinyl)-2,2-dimethylcyclopropanecarboxylate and 50% by weight of 4-methyl-2,3,5,6-tetrafluorobenzyl (1RS)-trans-3-(2,2-dichlorovinyl)-2,2-dimethylcyclopropanecarboxylate (this mixture is hereinafter referred to as reference compound B). […] In the table, the knocking-down activity and the lethal activity are indicated according to the following criterion: • Excellent: All the insects were knocked down or dead (the total in the two replications). • Good: 1 to 2 insects were not knocked down or dead (ditto). • Mediocre: 3 to 4 insects were not knocked down or dead (ditto). • Bad: 5 or more insects were not knocked down or dead (ditto).

[2] = test system: female adult houseflies; experiment: Insecticidal activity against housefly, topical application of acetone dilutions on the nota; assay type: in vivo; details: Musca domestica, 0.5 µl acetone dilution per insect on the nota, mortality after 24 hours
Experimental: The present compound was diluted with acetone to concentrations of 100, 50, 25, 12.5 and 6.25 ppm. Each of reference compounds A and B was also diluted with acetone to concentrations of 400, 200, 100, 50 and 25 ppm. Each of the dilutions thus prepared was applied on the nota of female adult houseflies in a volume of 0.5 µl per insect. The insects were given water and diet. After 24 hours, the dead and alive were counted for mortality. From the mortality, LD50 (mg/kg) value was determined.

[3] = Toxicity to rat, administration of corn oil dilutions; details: in vivo, male rats, dilution in corn oil, 10 ml/kg, mortality after 7 days
Experimental: Each of the present compound and reference compounds A and B was diluted with corn oil to predetermined concentrations. Each of the dilutions thus prepared was administered to male rats in an amount of 10 ml/kg. The rats were given water and diet. After 7 days, the dead and alive were counted for mortality. From the mortality, LD50 (mg/kg) value was determined.

[4] = Calculation of safety factor (rat LD50 / housefly LD50); details: Toxicity to rat (LD50 value) / Insecticidal activity against housefly (LD50 value)
Experimental: The safety factor was calculated from the insecticidal activity against housefly and the toxicity to rat according to the following equation. […] Safety factor = Toxicity to rat (LD50 value)] / [Insecticidal activity against housefly (LD50 value)] [formula]

In the case of `Cc1c(F)c(F)c(COC(=O)[C@@H]2[C@@H](C=C(Cl)Cl)C2(C)C)c(F)c1F` [Present compound, 4-methyl-2,3,5,6-tetrafluorobenzyl (1R)-trans-3-(2,2-dichlorovinyl)-2,2-dimethylcyclopropanecarboxylate], the Knocking-down activity ([1]; concentration 0.5 %W/W) is reported as “Excellent”, the Lethal activity ([1]; concentration 0.5 %W/W) is reported as “Good (1 to 2 insects were not knocked down or dead (ditto))” and the LD50 [2] is reported as 0.93 mg/kg. It also gave an LD50 at 7 days [3] of 300 mg/kg and a Safety factor [4] of 320.

With `Cc1c(F)c(F)c(COC(=O)[C@@H]2[C@H](C=C(Cl)Cl)C2(C)C)c(F)c1F` [Reference compound A, 4-methyl-2,3,5,6-tetrafluorobenzyl (1R)-cis-3-(2,2-dichlorovinyl)-2,2-dimethylcyclopropanecarboxylate] the Knocking-down activity ([1]; concentration 0.5 %W/W) was “Bad (5 or more insects were not knocked down or dead (ditto))”, the Lethal activity ([1]; concentration 0.5 %W/W) was “Bad (5 or more insects were not knocked down or dead (ditto))” and the LD50 [2] was 2.8 mg/kg. It also gave an LD50 at 7 days [3] of less than 100 mg/kg and a Safety factor [4] of less than 36.

For “mixture of 50% by weight of 4-methyl-2,3,5,6-tetrafluorobenzyl (1RS)-cis-3-(2,2-dichlorovinyl)-2,2-dimethylcyclopropanecarboxylate and 50% by weight of 4-methyl-2,3,5,6-tetrafluorobenzyl (1RS)-trans-3-(2,2-dichlorovinyl)-2,2-dimethylcyclopropanecarboxylate [Reference compound B]”, the Knocking-down activity ([1]; concentration 0.5 %W/W) was “Bad (5 or more insects were not knocked down or dead (ditto))”, the Lethal activity ([1]; concentration 0.5 %W/W) was “Bad (5 or more insects were not knocked down or dead (ditto))” and the Knocking-down activity ([1]; concentration 1.0 %W/W) was “Mediocre (3 to 4 insects were not knocked down or dead (ditto))”. For the same compound, the Lethal activity ([1]; concentration 1.0 %W/W) was “Bad (5 or more insects were not knocked down or dead (ditto))” and the Safety factor [4] was less than 35.
